Assay results: US20140323543A1, “Treatment of Prostate Cancer with eIF4E Antisense Compounds” (priority 2013, published 2014)
Marks after values point to notes of the source that are not given here. In the oligonucleotide strings, read from the 5' end, every base follows the letter of its sugar. An asterisk marks phosphorothioate; unmarked linkages are phosphodiester. Other units and linkages are bracketed, terminal groups are in braces. A string of capitals states the bases alone. e = 2'-O-(2-methoxyethyl) (MOE); [5mC] = 5-methylcytosine; d = 2'-deoxy (DNA)

Assays:
Format in all cases: in vivo
[1] = system: MDA-231 Breast Cancer Xenograft; test: MDA-231 breast cancer xenograft tumor volume in mice; settings: for Percent Reduction in Mean Tumor Volumes (observed): Breast MDA-231 Day 33, vs. Vehicle Control; for Percent Reduction in Mean Tumor Volumes (observed) / Mean Tumor Volume: ASO 50 mg/kg iv; for Mean Tumor Volume: in mm³
Experimental: (§1) Xenograft studies are carried out as described in Graff et al. (2005) Cancer Res. 65:7462-7469. Five million human cancer cells representing non-small cell lung cancer (line A549; ATCC, accession no. CCL-185), hormone refractory prostate cancer (line PC-3; ATCC, accession no. CRL-1435), and ER-/PR-HER2-breast cancer (line MDA-231; ATCC, accession no. HTB-26) are injected subcutaneously in the flank of 6-8 week old, athymic nude mice (Harlan, Indianapolis, Ind.) in a 1:1 mixture of serum-free growth medium and matrigel (Becton Dickinson, Bedford, Mass., catalogue #354234). Mice are monitored daily for palpable tumors.
(§2) When tumor volumes reach ˜50-100 mm^3, mice are randomized to treatment groups (Graff et al. (2007) J. Clin. Invest. 117:2638-48). Body weight is monitored each time tumors are measured.
(§3) For treatment, all mice are injected intravenously with the eIF-4E ASO in saline in a total volume of 200 μl. The ASO consists of the nucleotide sequence 5′-[…]-3′ (SEQ ID NO:1), in which every internucleoside linkage is a phosphorothioate linkage, nucleotides 1-5 and 16-20 reading from the 5′ end to the 3′ end each comprise a 2′-O-(2-methoxyethyl) sugar, nucleotides 6-15 are 2′-deoxynucleotides, every cytosine residue is a 5-methylcytosine, and which is in the form of a sodium salt. The mice are first injected with an initial loading dose of 50 mg/kg ASO for 3 consecutive days, followed by 50 mg/kg thrice weekly thereafter.
(§4) Taxotere® (docetaxel) dosing begins 8 days after the first ASO dose to allow time for reduction of eIF-4E protein expression. Mice are dosed with 2.5 or 10 mg/kg Taxotere® (Sanofi-Aventis) intraperitoneally (IP) in 1% ethanol in 5% dextrose water in a volume of 200 μl once weekly for 3 weeks.
(§5) Tumor volumes are calculated measuring the largest (L) and smallest (W) diameters with a caliper. The formula is: Volume=L×W^2×0.534. Tumor volume data are transformed to a log scale to equalize variance across time and treatment groups. The log volume data are analyzed with a two-way repeated measures analysis of variance by time and treatment using SAS PROC MIXED software (SAS Institute Inc, Cary, N.C.) using the spatial power covariance structure. Treatment groups are compared to the control group at each time point and overall. The data may be plotted as means and standard errors for each treatment group versus time. Additivity is assessed in two ways: (1) as an overall interaction effect between the ASO and Taxotere® in the repeated measures analysis, and (2) by using the Bliss Independence method on the final day of the study (C.I. Bliss (1939) Ann. Appl. Biol. 26:585-615). These two methods yield the same results.
(§6) The observed percent reductions in mean tumor volume at the conclusion of each study resulting from the various treatments are shown in Table 4. These are calculated as: […]
(§7) The “Expected if Additive” percent reductions in mean tumor volume shown in Table 4 are calculated using the Bliss Independence definition of additivity, as follows: […]

[2] = system: A549 Non-Small Cell Lung Cancer Xenograft; test: A549 non-small cell lung cancer xenograft tumor volume in mice; parameters: key to Mean Tumor Volume: tumor volume in mm^3; settings: ASO 50 mg/kg iv; for Mean Tumor Volume: in mm³; for Percent Reduction in Mean Tumor Volumes (observed): NSCLC A 549 Day 50, vs. Vehicle Control, Taxotere 10 mg/kg IP
Experimental: as §1, §2, §3, §4, §5, §6, §7

[3] = system: PC-3 Hormone-Refractory Prostate Cancer Xenograft; test: PC-3 hormone-refractory prostate cancer xenograft tumor volume in mice; settings: ASO 50 mg/kg iv; for Mean Tumor Volume: in mm³; for Percent Reduction in Mean Tumor Volumes (observed): Prostate PC3 Day 35, vs. Vehicle Control
Experimental: as §1, §2, §3, §4, §5, §6, §7

[4] = Day 5, Taxotere 2.5 mg/kg IP once weekly from 8 days after first ASO dose, tumor volumes in mm^3
[5] = Day 7, docetaxel 10 mg/kg IP once weekly from 8 days after first ASO dose, tumor volumes in mm^3
[6] = Day 7, Taxotere 10 mg/kg IP once weekly from 8 days after first ASO dose, tumor volumes in mm^3

In the case of “d(P-thio)([2′-O-(2-methoxyethyl)]m5rU-([2′-O-(2-methoxyethyl)]rG-([2′-O-(2-methoxyethyl)]m5rU-([2′-O-(2-methoxyethyl)]m5rC-([2′-O-(2-methoxyethyl)]rA-T-A-T-T-m5C-m5C-T-G-G-A-([2′-O-(2-methoxyethyl)]m5rU-([2′-O-(2-methoxyethyl)]m5rC-([2′-O-(2-methoxyethyl)]m5rC-([2′-O-(2-methoxyethyl)]m5rU-([2′-O-(2-methoxyethyl)]m5rU) (antisense eT*eG*eT*e[5mC]*eA*dT*dA*dT*dT*d[5mC]*d[5mC]*dT*dG*dG*dA*eT*e[5mC]*e[5mC]*eT*eT) [eIF-4E ASO]”, the “Percent Reduction in Mean Tumor Volumes (observed)” value (“Percent Reduction” for short) ([1]; Taxotere 2.5 mg/kg IP) is reported as “+16.6%”, the “Mean Tumor Volume” value [1, 4] is reported as 78.9 and the “Mean Tumor Volume” value ([1]; Day 8, Taxotere 2.5 mg/kg IP) is reported as 129.4. The “Mean Tumor Volume” value ([1]; Day 12, Taxotere 2.5 mg/kg IP) was 166.6, the “Mean Tumor Volume” value ([1]; Day 15, Taxotere 2.5 mg/kg IP) was 221.0 and the “Mean Tumor Volume” value ([1]; Day 19, Taxotere 2.5 mg/kg IP) was 268.2. For the same molecule, the “Mean Tumor Volume” value ([1]; Day 22, Taxotere 2.5 mg/kg IP) was 356.3, the “Mean Tumor Volume” value ([1]; Day 26, Taxotere 2.5 mg/kg IP) was 435.9 and the “Mean Tumor Volume” value ([1]; Day 29, Taxotere 2.5 mg/kg IP) was 574.1. For the same molecule, the “Mean Tumor Volume” value ([1]; Day 33, Taxotere 2.5 mg/kg IP) was 626.2, the “Effect on mean tumor volume (in words)” value ([1]; breast cancer model, ASO alone) was “non-statistically significant increase” and the “Mean Tumor Volume” value [2, 5] was 52.7. For the same molecule, the “Mean Tumor Volume” value ([2]; Day 10, docetaxel 10 mg/kg IP) was 69.4, the “Mean Tumor Volume” value ([2]; Day 15, docetaxel 10 mg/kg IP) was 113.7 and the “Mean Tumor Volume” value ([2]; Day 18, docetaxel 10 mg/kg IP) was 79.1. The “Mean Tumor Volume” value ([2]; Day 22, docetaxel 10 mg/kg IP) was 139.5, the “Mean Tumor Volume” value ([2]; Day 25, docetaxel 10 mg/kg IP) was 149.0 and the “Mean Tumor Volume” value ([2]; Day 29, docetaxel 10 mg/kg IP) was 220.1. The “Mean Tumor Volume” value ([2]; Day 32, docetaxel 10 mg/kg IP) was 249.5, the “Mean Tumor Volume” value ([2]; Day 36, docetaxel 10 mg/kg IP) was 256.6 and the “Mean Tumor Volume” value ([2]; Day 39, docetaxel 10 mg/kg IP) was 239.1. For the same molecule, the “Mean Tumor Volume” value ([2]; Day 43, docetaxel 10 mg/kg IP) was 313.2, the “Mean Tumor Volume” value ([2]; Day 46, docetaxel 10 mg/kg IP) was 292.3 and the “Mean Tumor Volume” value ([2]; Day 50, docetaxel 10 mg/kg IP) was 404.0. The “Percent Reduction” value [2] was −17.3%, the “Mean Tumor Volume” value [3, 6] was 49.8 and the “Mean Tumor Volume” value ([3]; Day 12, Taxotere 10 mg/kg IP) was 88.3. The “Mean Tumor Volume” value ([3]; Day 15, Taxotere 10 mg/kg IP) was 130.3, the “Mean Tumor Volume” value ([3]; Day 19, Taxotere 10 mg/kg IP) was 159.0 and the “Mean Tumor Volume” value ([3]; Day 22, Taxotere 10 mg/kg IP) was 218.8. The “Mean Tumor Volume” value ([3]; Day 27, Taxotere 10 mg/kg IP) was 294.5, the “Mean Tumor Volume” value ([3]; Day 29, Taxotere 10 mg/kg IP) was 343.9 and the “Mean Tumor Volume” value ([3]; Day 33, Taxotere 10 mg/kg IP) was 424.0. For the same molecule, the “Mean Tumor Volume” value ([3]; Day 35, Taxotere 10 mg/kg IP) was 491.2 and the “Percent Reduction” value ([3]; Taxotere 10 mg/kg IP) was −10.2%.

With CC(=O)O[C@@]12CO[C@@H]1C[C@H](O)[C@@]1(C)C(=O)[C@H](O)C3=C(C)[C@@H](OC(=O)[C@H](O)[C@@H](NC(=O)OC(C)(C)C)c4ccccc4)C[C@@](O)([C@@H](OC(=O)c4ccccc4)[C@H]21)C3(C)C [Docetaxel, (2R,3S)—N-carboxy-3-phenylisoseine,N-tert-butyl ester, 13-ester with 5β-20-epoxy-1,2α,4,7β,10β,13α-hexahydroxytax-11-en-9-one 4-acetate 2-benzoate, trihydrate, reference compound] the “Percent Reduction” value ([1]; Taxotere 2.5 mg/kg IP) was −1.4%, the “Mean Tumor Volume” value [1, 4] was 78.7 and the “Mean Tumor Volume” value ([1]; Day 8, Taxotere 2.5 mg/kg IP) was 130.1. For the same molecule, the “Mean Tumor Volume” value ([1]; Day 12, Taxotere 2.5 mg/kg IP) was 180.9, the “Mean Tumor Volume” value ([1]; Day 15, Taxotere 2.5 mg/kg IP) was 221.0 and the “Mean Tumor Volume” value ([1]; Day 19, Taxotere 2.5 mg/kg IP) was 270.3. The “Mean Tumor Volume” value ([1]; Day 22, Taxotere 2.5 mg/kg IP) was 333.9, the “Mean Tumor Volume” value ([1]; Day 26, Taxotere 2.5 mg/kg IP) was 384.9 and the “Mean Tumor Volume” value ([1]; Day 29, Taxotere 2.5 mg/kg IP) was 450.4. The “Mean Tumor Volume” value ([1]; Day 33, Taxotere 2.5 mg/kg IP) was 529.6, the “Mean Tumor Volume” value [2, 5] was 49.7 and the “Mean Tumor Volume” value ([2]; Day 10, docetaxel 10 mg/kg IP) was 56.7. The “Mean Tumor Volume” value ([2]; Day 15, docetaxel 10 mg/kg IP) was 114.8, the “Mean Tumor Volume” value ([2]; Day 18, docetaxel 10 mg/kg IP) was 70.0 and the “Mean Tumor Volume” value ([2]; Day 22, docetaxel 10 mg/kg IP) was 135.8. For the same molecule, the “Mean Tumor Volume” value ([2]; Day 25, docetaxel 10 mg/kg IP) was 170.1, the “Mean Tumor Volume” value ([2]; Day 29, docetaxel 10 mg/kg IP) was 257.0 and the “Mean Tumor Volume” value ([2]; Day 32, docetaxel 10 mg/kg IP) was 261.5. For the same molecule, the “Mean Tumor Volume” value ([2]; Day 36, docetaxel 10 mg/kg IP) was 290.0, the “Mean Tumor Volume” value ([2]; Day 39, docetaxel 10 mg/kg IP) was 282.3 and the “Mean Tumor Volume” value ([2]; Day 43, docetaxel 10 mg/kg IP) was 342.6. For the same molecule, the “Mean Tumor Volume” value ([2]; Day 46, docetaxel 10 mg/kg IP) was 310.2, the “Mean Tumor Volume” value ([2]; Day 50, docetaxel 10 mg/kg IP) was 343.8 and the “Percent Reduction” value [2] was −29.6%. For the same molecule, the “Mean Tumor Volume” value [3, 6] was 46.3, the “Mean Tumor Volume” value ([3]; Day 12, Taxotere 10 mg/kg IP) was 106.8 and the “Mean Tumor Volume” value ([3]; Day 15, Taxotere 10 mg/kg IP) was 134.7. For the same molecule, the “Mean Tumor Volume” value ([3]; Day 19, Taxotere 10 mg/kg IP) was 164.8, the “Mean Tumor Volume” value ([3]; Day 22, Taxotere 10 mg/kg IP) was 171.7 and the “Mean Tumor Volume” value ([3]; Day 27, Taxotere 10 mg/kg IP) was 157.4. For the same molecule, the “Mean Tumor Volume” value ([3]; Day 29, Taxotere 10 mg/kg IP) was 162.7, the “Mean Tumor Volume” value ([3]; Day 33, Taxotere 10 mg/kg IP) was 161.6 and the “Mean Tumor Volume” value ([3]; Day 35, Taxotere 10 mg/kg IP) was 167.0. The “Percent Reduction” value ([3]; Taxotere 10 mg/kg IP) was −69.5%*.
